Laboratory results published in patent publication US20040018235A1, “Controlled release pharmaceutical composition” (KOWA CO., LTD, priority 2002, published 2004).

Assay: Absorption sites of pitavastatin in rat (in situ loop test)
Type: in vivo

O=C(O)C[C@H](O)C[C@H](O)/C=C/c1c(C2CC2)nc2ccccc2c1-c1ccc(F)cc1 [pitavastatin, (+)-(3R,5S,6E)-7-[2-cyclopropyl-4-(4-fluorophenyl)-3-quinolyl]-3,5-dihydroxy-6-heptenoic acid]
Absorption percentage (duodenum, 0.5 h): 65.9 ± 2.1%
Absorption percentage (duodenum, 1 h): 60.3 ± 10.2%
Absorption percentage (large intestine, 0.5 h): 34.4 ± 3.7%
Absorption percentage (large intestine, 1 h): 51.6 ± 6.7%
Percentage of absorption in the small intestine relative to that in the duodenum (see Table 1): about one-third
Absorption percentage (small intestine, 0.5 h): 23.1 ± 3.8%
Absorption percentage (small intestine, 1 h): 21.3 ± 3.0%
Absorption percentage (stomach, 0.5 h): 8.6 ± 1.1%
Absorption percentage (stomach, 1 h): 14.4 ± 1.6%
